Active and inactive are the calls of the source. The rule behind the calls is not given here.
What was measured:
Aspergillus fumigatus [1] = assay: Antimicrobial activity against Aspergillus fumigatus AF293 infected in hartley guinea pig assessed as survival rate at 10 mg/kg, po BID for 8 days postinfection; format: functional
Aspergillus fumigatus [2] = assay: Antimicrobial activity against Aspergillus fumigatus AF293 infected in hartley guinea pig assessed as time to death at 10 mg/kg, po BID for 8 days postinfection; format: functional; settings: AF293, in Cavia porcellus, 192 h
Aspergillus fumigatus [3] = assay: Antimicrobial activity against Aspergillus fumigatus AF293 infected in hartley guinea pig assessed as decreased fungal burden in lung at 10 mg/kg, po BID for 8 days postinfection; format: functional, organism-based; parameters: dose 10 mg/kg
Aspergillus fumigatus [4] = assay: Antimicrobial activity against Aspergillus fumigatus AF293 infected in hartley guinea pig assessed as decreased fungal burden in lung at 10 mg/kg, po BID after 4 to 6 days postinfection; format: functional, organism-based; parameters: dose 10 mg/kg
Aspergillus fumigatus [5] = assay: Antimicrobial activity against Aspergillus fumigatus AF293 infected in hartley guinea pig assessed as log reduction in […] fungal burden at 10 mg/kg, po BID after 4 to 7 days postinfection; format: functional

Which results are given for C[C@@H](c1ncncc1F)[C@](O)(Cn1cncn1)c1ccc(F)cc1F [VORICONAZOLE]?
Survival (Aspergillus fumigatus [1]): 9.13 days; survival at 10 mg/kg (Aspergillus fumigatus [2]): 62.5%; Activity (Aspergillus fumigatus [3]): Active; Activity (Aspergillus fumigatus [4]): Active; FC (Aspergillus fumigatus [5]): 2.98
